IC50 and inhibition data for six compounds are collected here from article PMC11903766, “A structure-based framework for selective inhibitor design and optimization” (Communications Biology, 2025).

Read-outs that look alike come from different tables or passages of the source.

Test [1] deals with T1, PARP2 (Homo sapiens, UniProt Q9UGN5). The test can be described thus: biochemical. Set-up: PARP2 ELISA on histone-coated plates with biotin-NAD+, streptavidin-HRP chemiluminescence. As to the method: (§1) S54 PARP2 inhibitory activity assay. The histone coated 384-well plates were prepared by adding 25 µL histone solution to each well and incubating overnight at 4°C. Prepared PBST buffer, blocking buffer, and assay buffer. Washed the histone coated 384-well plate 3 times using PBST buffer solution. It was blocked with 50 µL blocking buffer at room temperature for 1 h. The plate was washed 3 times using PBST buffer. 2000x compounds were prepared in the source plate, and 50nl compound were transferred from the source plate to the 96-well intermediate plate with 19.95ul assay buffer, shaken, and centrifuged at 1000rpm for 1 min. 5 µL DMSO/compound was then transferred to each well. The PARP2 mixture was incubated for 10 min at 25°C, followed by the addition of 10 µL PARP2 (except min control), incubated with the compound for 10 min at RT, and 10 µL assay buffer was added to the minimal control of assay plate. Added 10 µL of 2.5x Biotin-NAD+ to each well and incubated for 90 min at 25°C. The plate was washed 3 times with PBST buffer and then assayed. Added 25 µL of Stre-HRP. Incubated for 1 h at RT and washed the plate 3 times with PBST buffer. Read chemiluminescence on Envision immediately after adding 25 µL of Femto-ECL Substrate A and Femto-ECL Substrate B (1:1) mix. The IC50 values were calculated by analyzing the concentration-response curves.
T1 sequence (Q9UGN5 whole entry): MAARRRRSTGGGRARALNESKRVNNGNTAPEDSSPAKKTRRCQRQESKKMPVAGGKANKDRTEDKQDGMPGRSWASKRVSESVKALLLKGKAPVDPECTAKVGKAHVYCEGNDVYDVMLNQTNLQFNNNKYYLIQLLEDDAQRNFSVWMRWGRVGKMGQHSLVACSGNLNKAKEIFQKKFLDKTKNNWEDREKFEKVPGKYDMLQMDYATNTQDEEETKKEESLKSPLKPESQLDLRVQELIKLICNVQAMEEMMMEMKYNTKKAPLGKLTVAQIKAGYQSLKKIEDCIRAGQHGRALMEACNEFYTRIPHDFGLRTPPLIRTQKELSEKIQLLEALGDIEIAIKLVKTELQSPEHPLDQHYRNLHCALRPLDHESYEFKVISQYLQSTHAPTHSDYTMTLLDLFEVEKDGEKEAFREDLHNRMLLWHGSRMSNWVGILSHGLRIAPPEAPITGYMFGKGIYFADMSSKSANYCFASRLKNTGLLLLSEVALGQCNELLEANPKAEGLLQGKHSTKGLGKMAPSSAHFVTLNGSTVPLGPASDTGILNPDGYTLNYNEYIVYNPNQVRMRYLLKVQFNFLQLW

Test [2] concerns the target T2, PARP1 (Homo sapiens, UniProt P09874). Description: biochemical. Details: PARP1 ELISA on histone-coated plates with NAD+, anti-PAR antibody, HRP chemiluminescence. As to the method:
(§2) S53 Biological Assay Methods PARP1 inhibitory activity assay. The histone coated 384-well plates were prepared by adding 25 µL histone solution to each well and incubating overnight at 4°C. Prepared PBST buffer, blocking buffer, and assay buffer. Washed the histone coated 384-well plate 3 times using PBST buffer solution. It was blocked with 50 µL blocking buffer at room temperature for 1 h. The plate was washed 3 times using PBST buffer. 2000x compounds were prepared in the source plate, and 50nl compound were transferred from the source plate to the 96-well intermediate plate with 19.95ul assay buffer, shaken, and centrifuged at 1000rpm for 1 min. 5 µL DMSO/compound was then transferred to each well. The PARP1 and DNA mixture was incubated for 10 min at 25°C, followed by the addition of 10 µL PARP1 and DNA (except min control), incubated with the compound for 10 min at RT, and 10 μL DNA was added to the minimal control of assay plate. Added 10 µL of 2.5x NAD+ to each well and incubated for 60 min at 25°C. The plate was washed 3 times with PBST buffer and then assayed. Added 20 µL of anti-Poly/Mono-ADP Ribose Rabbit mAb. […] Read chemiluminescence on Envision immediately after adding 25 µL of Femto-ECL Substrate A and Femto-ECL Substrate B (1:1) mix. The IC50 values were calculated by analyzing the concentration-response curves. […]

The target of test [3] is T1, PARP2. Description: biochemical. Details: PARP2 ELISA on histone-coated plates, biotin-NAD+, streptavidin-HRP, chemiluminescence. On the procedure:
as §1

In test [4] the target is T2, PARP1. The test can be described thus: biochemical. Set-up: PARP1 ELISA on histone-coated plates, NAD+, anti-PAR antibody with HRP, chemiluminescence. As to the method: S53 Biological Assay Methods PARP1 inhibitory activity assay. The histone coated 384-well plates were prepared by adding 25 µL histone solution to each well and incubating overnight at 4°C. Prepared PBST buffer, blocking buffer, and assay buffer. Washed the histone coated 384-well plate 3 times using PBST buffer solution. It was blocked with 50 µL blocking buffer at room temperature for 1 h. The plate was washed 3 times using PBST buffer. 2000x compounds were prepared in the source plate, and 50nl compound were transferred from the source plate to the 96-well intermediate plate with 19.95ul assay buffer, shaken, and centrifuged at 1000rpm for 1 min. 5 µL DMSO/compound was then transferred to each well. The PARP1 and DNA mixture was incubated for 10 min at 25°C, followed by the addition of 10 µL PARP1 and DNA (except min control), incubated with the compound for 10 min at RT, and 10 μL DNA was added to the minimal control of assay plate. Added 10 µL of 2.5x NAD+ to each well and incubated for 60 min at 25°C. The plate was washed 3 times with PBST buffer and then assayed. Added 20 µL of anti-Poly/Mono-ADP Ribose Rabbit mAb. Incubated for 1.5 h at RT and washed the plate 3 times with PBST buffer. Then added, 20 µL of diluted (1:2000 in Blocking buffer) anti-rabbit IgG, HRP-linked Antibody. Incubated for 1 h at RT and washed the plate 3 times using PBST buffer. Read chemiluminescence on Envision immediately after adding 25 µL of Femto-ECL Substrate A and Femto-ECL Substrate B (1:1) mix. The IC50 values were calculated by analyzing the concentration-response curves. Fit the data to obtain inhibition values using equation (1) Equation (1): inh %=( Max-Signal)/ (Max-Min)*100 Fit the data to obtain IC50 values using equation (2) Equation (2): Y=Bottom + (Top-Bottom)/(1+(IC50/X)[…]) Y is %inhibition and X is compound concentration.

The target in test [5] is T1, PARP2. Details: PARP2 ELISA on histone-coated plates, biotin-NAD+, streptavidin-HRP, chemiluminescence. The settings on record: inhibitor. As to the method: as §1
The target in test [6] is T2, PARP1. Details: PARP1 ELISA on histone-coated plates, NAD+, anti-PAR antibody with HRP, chemiluminescence. The settings on record: inhibitor. As to the method: as §2
In test [7] the target is T2, PARP1. The test can be described thus: ELISA enzyme inhibition assay. The test is classed as biochemical. The settings on record: read-out: PARP1 Enzyme / IC50 (nM)^b. Background: An ELISA detects its analyte on a solid surface through an enzyme-linked reagent.
Test [8] deals with T1, PARP2. The test can be described thus: ELISA enzyme inhibition assay. The test is classed as biochemical. The settings on record: read-out: PARP2 Enzyme / IC50 (nM)^b.

T2 sequence (P09874 2-1014): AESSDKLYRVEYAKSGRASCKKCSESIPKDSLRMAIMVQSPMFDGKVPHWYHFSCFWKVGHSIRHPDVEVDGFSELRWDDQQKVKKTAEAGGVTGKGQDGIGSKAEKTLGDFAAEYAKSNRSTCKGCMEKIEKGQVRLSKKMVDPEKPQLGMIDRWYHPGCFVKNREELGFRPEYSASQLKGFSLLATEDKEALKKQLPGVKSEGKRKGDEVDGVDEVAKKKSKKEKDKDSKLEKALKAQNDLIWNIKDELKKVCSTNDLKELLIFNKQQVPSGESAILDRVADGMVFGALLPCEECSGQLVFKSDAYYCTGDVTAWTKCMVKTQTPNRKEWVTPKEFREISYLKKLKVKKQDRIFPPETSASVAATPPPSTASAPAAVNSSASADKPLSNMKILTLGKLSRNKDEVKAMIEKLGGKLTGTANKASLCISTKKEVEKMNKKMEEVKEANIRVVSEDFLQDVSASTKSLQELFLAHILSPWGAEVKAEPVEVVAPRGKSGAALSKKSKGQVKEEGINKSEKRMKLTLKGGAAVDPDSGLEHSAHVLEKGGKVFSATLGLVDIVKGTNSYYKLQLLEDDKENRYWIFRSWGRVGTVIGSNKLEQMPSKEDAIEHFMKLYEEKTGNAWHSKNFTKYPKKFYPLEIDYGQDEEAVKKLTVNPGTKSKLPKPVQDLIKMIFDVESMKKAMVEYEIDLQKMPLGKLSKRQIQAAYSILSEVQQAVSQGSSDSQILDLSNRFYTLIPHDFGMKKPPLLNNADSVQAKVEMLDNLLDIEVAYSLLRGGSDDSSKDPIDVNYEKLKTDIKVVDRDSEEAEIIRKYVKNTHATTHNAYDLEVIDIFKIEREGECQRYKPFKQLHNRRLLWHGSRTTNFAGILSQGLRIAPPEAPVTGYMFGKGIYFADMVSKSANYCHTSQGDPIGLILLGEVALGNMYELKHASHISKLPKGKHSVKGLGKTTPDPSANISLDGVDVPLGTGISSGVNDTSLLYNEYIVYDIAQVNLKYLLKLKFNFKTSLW

As for `CNC(=O)c1ccc(N2CCN(Cc3ccnc(-c4c[nH]c(=O)c(C)c4)n3)CC2)cn1` [R1], the figures for the IC50 in test [1] and in test [2] were 0.255 µM and 3.37 µM, respectively.
For `CNC(=O)c1ccc(N2CCN(CC#Cc3cccc4cn[nH]c34)CC2)cn1` [Y2], the inhibition (usually the relative decrease from the control value, in per cent) at 0.01 µM was 2.3% in test [3] and -0.1% in test [4]. The inhibition at 10 µM in test [4] was 47.4%. Moreover, the IC50 in test [5] is greater than 10 µM; in test [6], 9.8 µM.
As for `CCn1c(=O)[nH]c2sc(CN3CCN(c4ccc(C(=O)NC)nc4)CC3)c(C)c2c1=O` [Y4], the values for the inhibition at 0.01 µM in test [3] and in test [4] were -1.6% and 20.7%, respectively. Besides, the inhibition at 10 µM in test [4] was 99%. In addition, the results for the IC50 in test [7] and in test [8] were 86.5 nM and 741 nM, respectively.
Consider `CNC(=O)c1ccc(N2CCN(Cc3ccc4c(c3)[nH]c3ncccc34)CC2)cn1` [Y5], for which the inhibition at 0.01 µM came to 1.4% in test [3] and 46% in test [4]. Moreover, the inhibition at 10 µM in test [4] is 98.8%. The figures for the IC50 in test [7] and in test [5] were 12.7 nM and greater than 10 µM, respectively.
Take `CCNC(=O)Nc1cc(CN2CCN(c3ccc(C(=O)NC)nc3)CC2)c2ccccc2n1` [Y6]: the inhibition at 0.01 µM in test [3] was 87.6%; in test [4], 70.5%. Further, in test [4], the inhibition at 10 µM was found to be 99.1%. The IC50 in test [7] was 6 nM; in test [8] it was 2.4 nM.
Consider `O=C(c1ccc(C(F)(F)F)c(=O)[nH]1)N1CCN(c2ccc3cc[nH]c3c2)CC1` [Z5], for which the values for the inhibition at 0.01 µM in test [3] and in test [4] were -0.8% and 7.3%, respectively. Moreover, the inhibition at 10 µM in test [4] was found to be 12.7%. In addition, the IC50 in test [5] and in test [6] was greater than 10 µM throughout.
